One substance from US9551711B2, “Compositions and methods for detecting nitration of PKG-1α and methods of use thereof” (Augusta University Research Institute, Inc., priority 2013, dated 2017) can be followed below.

Assay [1] has as its system pulmonary artery smooth muscle cells (PASMC). As to the kind of experiment: PASMC phenotype markers MYH, Calponin-1, Vimentin (Western blot). The assay is classed as cell-based, lamb. The note with it: WT-PKG-1α transfected PASMC; SIN-1 500 μM, 48 h. The procedure:
To assess the effect of nitration on pulmonary arterial smooth muscle cell (PASMC) phenotype, PASMC were transiently transfected with expression plasmids containing WT-PKG-1α, Y247F-PKG-1α, or PDEST40 (as a control) for 20 h. Cells were then exposed or not to SIN-1 (500 μM, 48 h) and the effect on synthetic and contractile markers determined. The levels of myosin heavy chain (MYH, FIG. 3A), Calponin-1 (FIG. 3B), and Vimentin (FIG. 3C) were determined. The blots were then stripped and re-probed for β-actin to normalize for protein loading. PASMC were also subjected to immunohistochemistry using antibodies to SM22-α (5 μg/ml) and PCNA (1 μg/ml). Relevant secondary antibodies linked to Alexa Fluor 488 (green) were then applied. DAPI was also used to stain (blue) the cell nuclei.
Background: In western blotting, separated proteins are transferred to a membrane and probed.

The subject of assay [2] is PKG-1α. As to the kind of experiment: PKG activity in transfected HEK-293T cells. The assay is classed as cell-based, human. The settings on record: HEK-293T; SIN-1 500 μM, 30 min. The procedure:
(§1) To determine the role of tyrosine 247 and tyrosine 425 in mediating the nitration dependent inhibition of PKG-1α kinase activity, Y247F- and Y425F-PKG-1α mutants were generated and expressed in HEK-293T cells. HEK-293T cells were transiently transfected with expression plasmids containing WT-, Y247F-, or Y425F-PKG-1α for 48 h. […] Protein extracts were immunoprecipitated using an antibody raised against PKG-1α and the level of nitrated PKG-1α determined by probing the membranes with an antiserum raised against 3-NT. The blots were then stripped and re-probed for PKG-1α to normalize for the efficiency of the immunoprecipitation.
(§2) Total PKG activity was determined using a non-radioactive immunoassay in cell lysates, according to the manufacturer's directions. […]
(§3) After incubation for 30 min at 30° C. to allow the phosphorylation of the bound substrate, an HRP conjugated anti-phosphothreonine specific antibody was added to convert a chromogenic substrate to a colorimetric substrate that was subsequently read spectrophotometrically at 450 nm. The change in absorbance reflected the relative activity of PKG in the sample. […] The kinetic constants were determined using nonlinear regression (curve fit) analysis (GraphPad Prism Software Inc.).

In assay [3] the target is T1, PKG-1α (Homo sapiens, UniProt Q13976, Y425F).
T1 construct: an expression plasmid containing a full length WT-PKG-1α cDNA; expressed in transfected cells; host or cells: HEK-293T
T1 sequence (Q13976 2-671 Y425F): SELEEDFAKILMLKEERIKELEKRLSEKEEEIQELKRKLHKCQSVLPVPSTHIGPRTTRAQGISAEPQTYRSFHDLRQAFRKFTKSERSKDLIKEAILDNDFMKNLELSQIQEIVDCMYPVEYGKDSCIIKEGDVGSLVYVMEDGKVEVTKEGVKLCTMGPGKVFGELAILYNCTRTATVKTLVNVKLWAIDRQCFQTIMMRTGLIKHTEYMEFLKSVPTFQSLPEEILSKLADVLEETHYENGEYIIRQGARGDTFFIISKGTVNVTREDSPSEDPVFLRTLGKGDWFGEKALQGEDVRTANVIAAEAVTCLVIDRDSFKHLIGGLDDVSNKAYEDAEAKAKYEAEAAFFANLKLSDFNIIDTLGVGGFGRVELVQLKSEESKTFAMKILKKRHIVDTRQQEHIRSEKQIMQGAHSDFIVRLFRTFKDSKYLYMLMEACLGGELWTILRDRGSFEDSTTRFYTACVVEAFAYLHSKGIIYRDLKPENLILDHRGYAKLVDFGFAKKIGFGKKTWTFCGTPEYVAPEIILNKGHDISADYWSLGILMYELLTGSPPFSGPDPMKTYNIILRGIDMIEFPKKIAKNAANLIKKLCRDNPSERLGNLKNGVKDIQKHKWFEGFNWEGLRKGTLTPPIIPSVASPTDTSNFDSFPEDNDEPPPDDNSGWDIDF
Description: PKG activity in transfected HEK-293T cells. The settings on record: HEK-293T expressing Y425F-PKG-1α; SIN-1 500 μM, 30 min. The assay is classed as cell-based. The procedure: as §1, §2, §3

The target of assay [4] is T2, PKG-1α (Homo sapiens, UniProt Q13976, Y247F).
T2 sequence (Q13976 2-671 Y247F): T1 sequence (Q13976 2-671 Y425F) with Y246F, F424Y
Description: PKG activity in transfected HEK-293T cells. The settings on record: HEK-293T expressing Y247F-PKG-1α; SIN-1 500 μM, 30 min. The arrangement: made in house; host or cells: HEK-293T. The assay is classed as cell-based. The procedure:
as §1, §2, §3

Numbering of substitutions follows the chain as printed.

In the case of “3-morpholinosydnonimine N-ethylcarbamide [SIN-1]”, in assay [1], the “expression of contractile marker Calponin-1” value is on record as “decreased”, the “expression of contractile marker MYH” value was “decreased” and the “expression of proliferative marker Vimentin” value is “increased”. The “cGMP-independent PKG activity” value in the assay on PKG-1α [2] is “did not alter”. Moreover, on PKG-1α [3], the “cGMP dependent PKG activity” value is listed as “attenuated”. Besides, the “cGMP dependent PKG activity” value on PKG-1α [4] is “unaffected”.
